Measurements reported in ChEMBL document CHEMBL4261654, “Synthesis and in vitro antitumor activity of novel alkenyl derivatives of pyridoxine, bioisosteric analogs of feruloyl methane” (Bioorg Med Chem, 2018).
The source made the active and inactive calls. The calls are words filed in the database; no cut-off is given here.

Experiments:
[1] = Antioxidant activity assessed as ferric ion reducing activity at 20 to 320 umol after 20 mins by FRAP assay; type: functional
MCF7 [2] = assay: Antiproliferative activity against human MCF7 cells after 72 hrs by MTT assay; type: functional, cell-based; conditions: MCF7, 72 h
HEK293 = assay: Antiproliferative activity against human HEK293 cells after 72 hrs by MTT assay; type: cell-based; conditions: HEK293, 72 h
OVCAR-4 [3] = assay: Potency index, ratio of compound IC50 to dehydrozingerone IC50 for antiproliferative activity against human OVCAR4 cells; type: functional
PC-3 [4] = assay: Cell cycle arrest in human PC3 cells assessed as accumulation at S phase at 2 uM after 72 hrs by RNase/propidium iodide staining-based flow cytometric analysis (reference value: 17 +/- 1%); type: functional
PC-3 [5] = assay: Induction of apoptosis in human PC3 cells assessed as viable cells at 10 uM after 24 hrs by Annexin V-PE/7-AAD staining-based flow cytometric analysis (reference value: 70%); type: functional; conditions: PC-3, 24 h, read-out: Activity
HCT-15 [6] = assay: Potency index, ratio of compound IC50 to dehydrozingerone IC50 for antiproliferative activity against human HCT15 cells; type: functional
SNB-19 [7] = assay: Antiproliferative activity against human SNB19 cells after 72 hrs by MTT assay; type: functional, cell-based; conditions: SNB-19, 72 h
PC-3 [8] = assay: Antimigratory activity in human PC3 cells at 10 uM measured during 120 hrs each 15 mins by RTCA DP based cellular impedance analysis; type: functional
PC-3 [9] = assay: Induction of mitochondrial membrane potential loss in human PC3 cells assessed as fluorescence intensity at 30 uM after 24 hrs by TMRE dye-based flow cytometric analysis (reference value: 10101 +/- 853); type: functional
PC-3 [10] = assay: Cell cycle arrest in human PC3 cells assessed as accumulation at G0/G1 phase at 2 uM after 72 hrs by RNase/propidium iodide staining-based flow cytometric analysis (reference value: 61 +/- 3%); type: functional
PC-3 [11] = assay: Induction of apoptosis in human PC3 cells assessed as intracellular ROS levels by measuring fluoresence intensity at 20 uM after 24 hrs by DCFH-DA staining-based flow cytometric analysis (reference value: 3176 +/- 398); type: functional
PC-3 [12] = assay: Antimigratory activity in human PC3 cells at 2 uM measured during 120 hrs each 15 mins by RTCA DP based cellular impedance analysis; type: functional
HCT-116 [13] = assay: Antiproliferative activity against human HCT116 cells after 72 hrs by MTT assay; type: functional, cell-based; conditions: HCT-116, 72 h
PC-3 [14] = assay: Induction of mitochondrial membrane potential loss in human PC3 cells assessed as fluorescence intensity at 10 uM after 24 hrs by TMRE dye-based flow cytometric analysis (reference value: 10101 +/- 853); type: functional
PC-3 [15] = assay: Antimigratory activity in human PC3 cells at 0.2 uM measured during 120 hrs each 15 mins by RTCA DP based cellular impedance analysis; type: functional
PC-3 [16] = assay: Antiproliferative activity in human PC3 cells at 0.2 to 2 uM measured during 120 hrs each 15 mins by RTCA DP based cellular impedance analysis; type: functional, cell-based
MCF7 [17] = assay: Potency index, ratio of compound IC50 to dehydrozingerone IC50 for antiproliferative activity against human MCF7 cells; type: functional
[18] = Antiproliferative activity against HSF cells after 72 hrs by MTT assay; type: cell-based; conditions: Homo sapiens
MDA-MB-231 [19] = assay: Potency index, ratio of compound IC50 to dehydrozingerone IC50 for antiproliferative activity against human MDA-MB-231 cells; type: functional
PC-3 [20] = assay: Induction of apoptosis in human PC3 cells assessed as early apoptotic cells at 30 uM after 24 hrs by Annexin V-PE/7-AAD staining-based flow cytometric analysis (reference value: 2%); type: functional
PC-3 [21] = assay: Cell cycle arrest in human PC3 cells assessed as accumulation at G2/M phase at 2 uM after 72 hrs by RNase/propidium iodide staining-based flow cytometric analysis (reference value: 20 +/- 3%); type: functional
PC-3 [22] = assay: Cell cycle arrest in human PC3 cells assessed as accumulation at G0/G1 phase at 10 uM after 72 hrs by RNase/propidium iodide staining-based flow cytometric analysis (reference value: 61 +/- 3%); type: functional
MDA-MB-231 [23] = assay: Antiproliferative activity against human MDA-MB-231 cells after 72 hrs by MTT assay; type: functional, cell-based; conditions: MDA-MB-231, 72 h
A498 [24] = assay: Potency index, ratio of compound IC50 to dehydrozingerone IC50 for antiproliferative activity against human A498 cells; type: functional
PC-3 [25] = assay: Induction of apoptosis in human PC3 cells assessed as early apoptotic cells at 10 uM after 24 hrs by Annexin V-PE/7-AAD staining-based flow cytometric analysis (reference value: 2%); type: functional
NCI-H322M [26] = assay: Potency index, ratio of compound IC50 to dehydrozingerone IC50 for antiproliferative activity against human NCI-H322M cells; type: functional
M14 [27] = assay: Potency index, ratio of compound IC50 to dehydrozingerone IC50 for antiproliferative activity against human M14 cells; type: functional
PC-3 [28] = assay: Induction of apoptosis in human PC3 cells assessed as intracellular ROS levels by measuring fluoresence intensity at 30 uM after 24 hrs by DCFH-DA staining-based flow cytometric analysis (reference value: 3176 +/- 398); type: functional
PC-3 [29] = assay: Induction of apoptosis in human PC3 cells assessed as necrotic cells at 30 uM after 24 hrs by Annexin V-PE/7-AAD staining-based flow cytometric analysis (reference value: 14%); type: functional
[30] = Ratio of compound IC50 to dehydrozingerone IC50 for antiproliferative activity against HSF cells; type: cell-based; conditions: human, read-out: Ratio IC50
M14 [31] = assay: Antiproliferative activity against human M14 cells after 72 hrs by MTT assay; type: functional, cell-based; conditions: M14, 72 h
[32] = Selectivity index, ratio of IC50 for HSF cells to IC50 for human MCF7 cells; type: toxicity; conditions: HSF cells versus MCF7 cells, read-out: Ratio IC50
PC-3 [33] = assay: Antiproliferative activity in human PC3 cells at 10 uM measured after 120 hrs measured each 15 mins by RTCA DP based cellular impedance analysis; type: functional
SNB-19 [34] = assay: Potency index, ratio of compound IC50 to dehydrozingerone IC50 for antiproliferative activity against human SNB19 cells; type: functional
PC-3 [35] = assay: Induction of apoptosis in human PC3 cells assessed as late apoptotic cells at 10 uM after 24 hrs by Annexin V-PE/7-AAD staining-based flow cytometric analysis (reference value: 8%); type: functional
PC-3 [36] = assay: Induction of mitochondrial membrane potential loss in human PC3 cells assessed as fluorescence intensity at 20 uM after 24 hrs by TMRE dye-based flow cytometric analysis (reference value: 10101 +/- 853); type: functional
PC-3 [37] = assay: Cell cycle arrest in human PC3 cells assessed as accumulation at G2/M phase at 10 uM after 72 hrs by RNase/propidium iodide staining-based flow cytometric analysis (reference value: 20 +/- 3%); type: functional
HCT-116 [38] = assay: Potency index, ratio of compound IC50 to dehydrozingerone IC50 for antiproliferative activity against human HCT116 cells; type: functional
PC-3 [39] = assay: Cell cycle arrest in human PC3 cells assessed as accumulation at S phase at 10 uM after 72 hrs by RNase/propidium iodide staining-based flow cytometric analysis (reference value: 17 +/- 1%); type: functional
A498 [40] = assay: Antiproliferative activity against human A498 cells after 72 hrs by MTT assay; type: functional, cell-based; conditions: A498, 72 h
PC-3 [41] = assay: Induction of apoptosis in human PC3 cells assessed as necrotic cells at 10 uM after 24 hrs by Annexin V-PE/7-AAD staining-based flow cytometric analysis (reference value: 14%); type: functional
HCT-15 [42] = assay: Antiproliferative activity against human HCT15 cells after 72 hrs by MTT assay; type: functional, cell-based; conditions: HCT-15, 72 h
PC-3 [43] = assay: Antiproliferative activity against human PC3 cells after 72 hrs by MTT assay; type: functional, cell-based; conditions: PC-3, 72 h
PC-3 [44] = assay: Induction of apoptosis in human PC3 cells assessed as late apoptotic cells at 30 uM after 24 hrs by Annexin V-PE/7-AAD staining-based flow cytometric analysis (reference value: 8%); type: functional
NCI-H322M [45] = assay: Antiproliferative activity against human NCI-H322M cells after 72 hrs by MTT assay; type: functional, cell-based
PC-3 [46] = assay: Induction of apoptosis in human PC3 cells assessed as viable cells at 30 uM after 24 hrs by Annexin V-PE/7-AAD staining-based flow cytometric analysis (reference value: 70%); type: functional; conditions: PC-3, 24 h, read-out: Activity
PC-3 [47] = assay: Potency index, ratio of compound IC50 to dehydrozingerone IC50 for antiproliferative activity against human PC3 cells; type: functional
PC-3 [48] = assay: Induction of apoptosis in human PC3 cells assessed as intracellular ROS levels by measuring fluoresence intensity at 10 uM after 24 hrs by DCFH-DA staining-based flow cytometric analysis (reference value: 3176 +/- 398); type: functional
OVCAR-4 [49] = assay: Antiproliferative activity against human OVCAR4 cells after 72 hrs by MTT assay; type: functional, cell-based; conditions: OVCAR-4, 72 h

O=c1c(O)c(-c2ccc(O)c(O)c2)oc2cc(O)cc(O)c12
Activity [1]: Active

CCCC1OCc2c(/C=C/C(C)=O)nc(C)c(O)c2CO1 (stereo unspecified)
IC50 (MCF7 [2]): 4.6 µM
IC50 (HEK293): 13 µM

COc1cc(/C=C/C(=O)CC(=O)/C=C/c2ccc(O)c(OC)c2)ccc1O
Activity [1]: Active

O=C1O[C@H]([C@@H](O)CO)C(O)=C1O
Activity [1]: Active

CC(=O)/C=C/c1cnc(C)c2c1COC1(CCCC1)O2
IC50 (MCF7 [2]): 7.2 µM
IC50 (HEK293): 17 µM

CC(=O)/C=C/c1cnc(C)c2c1COC1(CCCCC1)O2
Ratio IC50 (OVCAR-4 [3]): 7 - 211
Activity (PC-3 [4]): 18%
viability at 10 µM (PC-3 [5]): 63%
Activity [1]: inactive
Ratio IC50 (HCT-15 [6]): 7 - 211
IC50 (SNB-19 [7]): 4.7 µM
inhibition at 10 µM (PC-3 [8]): 47%
Flu intensity (PC-3 [9]): 7587
Activity (PC-3 [10]): 61%
Flu intensity (PC-3 [11]): 4486
inhibition at 2 µM (PC-3 [12]): 27%
IC50 (HCT-116 [13]): 2.8 µM
Flu intensity (PC-3 [14]): 9999
inhibition at 0.2 µM (PC-3 [15]): 11%
Activity (PC-3 [16]): inactive
Ratio IC50 (MCF7 [17]): 7 - 211
IC50 [18]: 15.6 µM
IC50 (MCF7 [2]): 1.1 µM
Ratio IC50 (MDA-MB-231 [19]): 7 - 211
Activity (PC-3 [20]): 3%
Activity (PC-3 [21]): 19%
Activity (PC-3 [22]): 52%
IC50 (MDA-MB-231 [23]): 1.8 µM
Ratio IC50 (A498 [24]): 7 - 211
Activity (PC-3 [25]): 3%
Ratio IC50 (NCI-H322M [26]): 7 - 211
Ratio IC50 (M14 [27]): 7 - 211
Flu intensity (PC-3 [28]): 3085
Activity (PC-3 [29]): 6%
selectivity ratio [30]: 7 to 211
IC50 (M14 [31]): 2.6 µM
selectivity ratio [32]: 14.2
inhibition at 10 µM (PC-3 [33]): 25%
Ratio IC50 (SNB-19 [34]): 7 - 211
Activity (PC-3 [35]): 16%
Flu intensity (PC-3 [36]): 10524
IC50 (HEK293): 16 µM
Activity (PC-3 [37]): 29%
Ratio IC50 (HCT-116 [38]): 7 - 211
Activity (PC-3 [39]): 17%
IC50 (A498 [40]): 6.5 µM
Activity (PC-3 [41]): 17%
IC50 (HCT-15 [42]): 1.5 µM
IC50 (PC-3 [43]): 5.5 µM
Activity (PC-3 [44]): 52%
IC50 (NCI-H322M [45]): 4.6 µM
viability at 30 µM (PC-3 [46]): 39%
Ratio IC50 (PC-3 [47]): 7 - 211
Flu intensity (PC-3 [48]): 3680
IC50 (OVCAR-4 [49]): 19 µM

CCCCCCCCCC(C)C1OCc2c(/C=C/C(C)=O)cnc(C)c2O1 (stereo unspecified)
IC50 (MCF7 [2]): 2.4 µM
IC50 (HEK293): 7 µM

CCCCCCCCCC(C)C1OCc2c(/C=C/C(C)=O)nc(C)c(O)c2CO1 (stereo unspecified)
IC50 (MCF7 [2]): 2.9 µM
IC50 (HEK293): 1.4 µM
